Broadly, the Kd is a measure of binding affinity in units of concentration. Higher therefore signals a looser complex.

Substitutions are numbered along the chain they refer to.

Holding throughout (assay): Radioligand binding, transfected HEK293 cell membranes
Settings in all cases: HEK cell membranes, n=4

For one test, the target named is T1, WT 5-HT3 receptor (Mus musculus, UniProt P23979).
T1 construct: expressed in transfected cells; host or cells: HEK293 cells (membranes)
T1 sequence (P23979 24-489): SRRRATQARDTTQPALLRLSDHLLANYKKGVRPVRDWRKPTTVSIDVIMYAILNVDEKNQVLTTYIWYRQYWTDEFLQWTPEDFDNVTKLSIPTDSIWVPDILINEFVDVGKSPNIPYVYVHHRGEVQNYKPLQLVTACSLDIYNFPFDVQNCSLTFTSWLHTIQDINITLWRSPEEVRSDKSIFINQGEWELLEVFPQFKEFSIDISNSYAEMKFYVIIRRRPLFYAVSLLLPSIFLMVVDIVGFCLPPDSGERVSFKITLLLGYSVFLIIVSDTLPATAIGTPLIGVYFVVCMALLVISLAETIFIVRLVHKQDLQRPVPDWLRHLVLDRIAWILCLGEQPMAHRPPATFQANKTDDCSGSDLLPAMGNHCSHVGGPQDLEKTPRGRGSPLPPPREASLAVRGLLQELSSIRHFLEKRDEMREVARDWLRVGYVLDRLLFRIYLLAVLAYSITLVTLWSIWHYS
On the procedure:
(§1) One method to explore this is to perform radiolabeled ligand binding to examine the parameters associated with the binding site.
(§2) This was undertaken as previously described.[23] Briefly, transfected HEK293 cell membranes were incubated in 0.5 ml of HEPES buffer containing the 5-HT3 receptor antagonist [^3H]GR65630 to label cell surface receptors. Nonspecific binding was determined using 1 μM quipazine. Data were analyzed by iterative curve fitting using Prism. Values are presented as mean ± SEM.

The target in test [1] is T2, H323A mutant 5-HT3 receptor (Mus musculus, UniProt P23979, H350A).
T2 construct: expressed in transfected cells; host or cells: HEK293 cells (membranes)
T2 sequence (P23979 24-489 H350A): T1 sequence (P23979 24-489) with H327A
On the procedure: as §1, §2

The target in test [2] is T3, P318A mutant 5-HT3 receptor (Mus musculus, UniProt P23979, P345A).
T3 construct: expressed in transfected cells; host or cells: HEK293 cells (membranes)
T3 sequence (P23979 24-489 P345A): T1 sequence (P23979 24-489) with P322A
On the procedure: as §1, §2

For `Cc1[nH]cnc1CCC(=O)c1cn(C)c2ccccc12` [[^3H]GR65630], the results for the Bmax (on WT 5-HT3 receptor; in test [1]; in test [2]) were 1.1 ± 0.4 pmol/mg protein, 1.0 ± 0.1 pmol/mg protein and 0.9 ± 0.2 pmol/mg protein, respectively. For the same compound, the affinity at WT 5-HT3 receptor, expressed as Kd, was 0.25 ± 0.1 nM.

Source of the values: publication PMC9354082, “5-HT3 Receptor MX Helix Contributes to Receptor Function” (ACS Chemical Neuroscience, 2022).
